Measurements from ChEMBL document CHEMBL1773001, “Broad-spectrum antiviral activity including human immunodeficiency and hepatitis C viruses mediated by a novel retinoid thiosemicarbazone derivative” (Eur J Med Chem, 2011).
Activity calls are given as the source filed them. No cut-off for these calls is given here.

What was measured:
[1] = Cytotoxicity against human Huh7ET cells infected with Hepatitis C virus assessed as ribosomal RNA level by RT-PCR; type: cell-based, Huh-7
[2] = Selectivity index, ratio of CC50 for human Huh7ET cells infected with Hepatitis C virus to EC50 for Hepatitis C virus by RT-PCR; type: toxicity, cell-based, Huh-7; conditions: read-out: Selectivity Index
[3] = Selectivity index, ratio of CC50 for human HFF cells infected with Cowpox virus (Brighton Red) to EC50 for Cowpox virus (Brighton Red); type: toxicity, cell-based; conditions: read-out: Selectivity Index
[4] = system: Human betaherpesvirus 5; assay: Antiviral activity against Human cytomegalovirus (strain AD169) infected in 1 hr pretreated human HFF cells assessed as reduction in viral-induced cytopathic effect by neutral red uptake assay; type: functional, organism-based; conditions: Human betaherpesvirus 5, AD169, HFF
[5] = Antiviral activity against Cowpox virus (Brighton Red) infected in human HFF cells assessed as reduction in viral-induced cytopathic effect by neutral red uptake assay; type: functional, cell-based
[6] = system: Vaccinia virus; assay: Antiviral activity against Vaccinia virus Copenhagen infected in human HFF cells assessed as reduction in viral-induced cytopathic effect by neutral red uptake assay; type: functional, organism-based, Orthopoxvirus vaccinia
[7] = Cytotoxicity against human HFF cells infected with Human cytomegalovirus AD169 assessed as viable cells by neutral red uptake assay; type: cell-based
[8] = Cytotoxicity against human HFF cells infected with Vaccinia virus Copenhagen assessed as viable cells by neutral red uptake assay; type: cell-based
[9] = system: Hepatitis C virus; assay: Antiviral activity against Hepatitis C virus infected in human Huh7ET cells assessed as viral RNA level by RT-PCR; type: functional, organism-based, Hepacivirus hominis; conditions: Huh-7; for Activity: Hepacivirus hominis
[10] = Selectivity index, ratio of CC50 for human Huh7ET cells infected with Hepatitis C virus to EC50 for Hepatitis C virus by luciferase reporter gene assay; type: toxicity, cell-based, Huh-7; conditions: read-out: Selectivity Index
[11] = Selectivity index, ratio of CC50 for human HFF cells infected with Cowpox virus (Brighton Red) to EC50 for Vaccinia virus Copenhagen; type: toxicity, cell-based; conditions: read-out: Selectivity Index
[12] = Selectivity index, ratio of CC90 for human Huh7ET cells infected with Hepatitis C virus to EC90 for Hepatitis C virus by luciferase reporter gene assay; type: toxicity, cell-based, Huh-7; conditions: read-out: Selectivity Index
[13] = system: Hepatitis C virus; assay: Antiviral activity against Hepatitis C virus infected in human Huh7ET cells assessed as inhibition of viral replication by luciferase reporter gene assay; type: functional, organism-based, Hepacivirus hominis; conditions: Huh-7
[14] = Cytotoxicity against human HFF cells infected with Cowpox virus (Brighton Red) assessed as viable cells by neutral red uptake assay; type: cell-based
[15] = Cytotoxicity against human HFF cells infected with Varicella-zoster virus Ellen assessed as viable cells by neutral red uptake assay; type: cell-based
[16] = system: Human alphaherpesvirus 3; assay: Antiviral activity against Varicella-zoster virus Ellen infected in 1 hr pretreated human HFF cells assessed as reduction in viral-induced cytopathic effect by neutral red uptake assay; type: functional, organism-based; conditions: Human alphaherpesvirus 3, Ellen
[17] = system: Hepatitis C virus; assay: Antiviral activity against Hepatitis C virus infected in human Huh7ET cells assessed as inhibition of viral replication at 20 uM by luciferase reporter gene assay; type: functional, Hepacivirus hominis; conditions: Huh-7
[18] = Selectivity index, ratio of CC90 for human Huh7ET cells infected with Hepatitis C virus to EC90 for Hepatitis C virus by RT-PCR; type: toxicity, cell-based, Huh-7; conditions: read-out: Selectivity Index
[19] = system: Human alphaherpesvirus 3; assay: Antiviral activity against Varicella-zoster virus Ellen infected in human HFF cells assessed as inhibition of viral replication after 1 hr by plaque reduction assay; type: functional, organism-based; conditions: Human alphaherpesvirus 3, Ellen
[20] = Cytotoxicity against human PBMC infected with Human immunodeficiency virus 1 LAV1 by MTS assay; type: cell-based
[21] = Selectivity index, ratio of CC50 for human HFF cells infected with […] to EC50 for Varicella-zoster virus Ellen after 1 hr by plaque reduction assay; type: toxicity, cell-based; conditions: read-out: Selectivity Index
[22] = system: Human immunodeficiency virus 1; assay: Antiviral activity against Human immunodeficiency virus 1 LAV1 assessed as reduction in RT activity by [3H]-dTTP incorporation assay; type: functional, organism-based
[23] = Cytotoxicity against human HFF cells infected with Varicella-zoster virus Ellen assessed as viable cells after 1 hr by plaque reduction assay; type: cell-based
[24] = Cytotoxicity against human HFF cells infected with Human cytomegalovirus AD169 assessed as viable cells after 1 hr by plaque reduction assay; type: cell-based
[25] = system: Human betaherpesvirus 5; assay: Antiviral activity against Human cytomegalovirus (strain AD169) infected in human HFF cells assessed inhibition of viral replication after 1 hr by plaque reduction assay; type: functional, organism-based; conditions: Human betaherpesvirus 5, AD169, HFF
[26] = Selectivity index, ratio of CC50 for human PBMC infected with Human immunodeficiency virus 1 LAV1 to EC50 for Human immunodeficiency virus 1 LAV1
[27] = Selectivity index, ratio of CC50 for human HFF cells infected with […] to EC50 for Human cytomegalovirus AD169 after 1 hr by plaque reduction assay; type: toxicity, cell-based; conditions: read-out: Selectivity Index
[28] = Selectivity index, ratio of CC50 for human HFF cells infected with […] to EC50 for Varicella-zoster virus Ellen; type: toxicity, cell-based; conditions: read-out: Selectivity Index
[29] = Selectivity index, ratio of CC50 for human HFF cells infected with […] to EC50 for Human cytomegalovirus AD169; type: toxicity, cell-based; conditions: read-out: Selectivity Index
[30] = Orthopoxvirus vaccinia, Copenhagen, HFF
[31] = Orthopoxvirus vaccinia, Copenhagen, HFF, read-out: EC50

Question: For NC(=S)N/N=C/c1ccc(Br)cc1F, which CC50 [1] is on record?
Answer: ≥ 12.2 µM

Question: And the CC90 [1]?
Answer: > 20 µM

Question: And the selectivity ratio [2]?
Answer: 48.8

Question: What about the selectivity ratio [3] of the same compound?
Answer: > 2.6

Question: And the EC50 [4]?
Answer: > 300 µM

Question: And the EC90 [4]?
Answer: > 300 µM

Question: And the EC50 [5]?
Answer: 115 µM

Question: And the EC90 [5]?
Answer: 294 µM

Question: And the EC90 [6, 30]?
Answer: 239 µM

Question: What about the EC50 [6, 31] of the same compound?
Answer: 110 µM

Question: What about the CC50 [7] of the same compound?
Answer: > 300 µM

Question: And the CC50 [8]?
Answer: > 300 µM

Question: What about the EC50 [9] of the same compound?
Answer: 0.25 µM

Question: What about the EC90 [9] of the same compound?
Answer: > 20 µM

Question: And the selectivity ratio [10]?
Answer: > 71.4

Question: What about the selectivity ratio [11] of the same compound?
Answer: > 2.7

Question: What about the selectivity ratio [12] of the same compound?
Answer: > 3.4

Question: What about the EC50 [13] of the same compound?
Answer: 0.28 µM

Question: What about the EC90 [13] of the same compound?
Answer: 5.93 µM

Question: And the CC50 [14]?
Answer: > 300 µM

Question: What about the CC50 [15] of the same compound?
Answer: > 300 µM

Question: What about the EC50 [16] of the same compound?
Answer: > 300 µM

Question: And the EC90 [16]?
Answer: > 300 µM

Question: What does the source list for CCCCCCCCCCCCCCS/C(N)=N/N=C/c1ccc(N(C)C)cc1?
Answer: Activity [9]: inactive; inhibition at 20 µM [17]: 31.4%

Question: Which results are given for Nc1nc2c(ncn2COC(CO)CO)c(=O)[nH]1 [GANCICLOVIR]?
Answer: EC50 [4]: 0.04 µM; EC90 ([6]; Orthopoxvirus vaccinia): inactive; EC50 ([6]; hff): Not Active

Question: What does the source list for CC1=C(/C=C/C(C)=C/C=C/C(C)=C/C=N/[N-]C(=S)[N-]C(=S)[N-]/N=C/C=C(C)/C=C/C=C(C)/C=C/C2=C(C)CCCC2(C)C)C(C)(C)CCC1.O.[Na+].[Na+].[Na+]?
Answer: CC50 [1]: 11.2 µM; CC90 [1]: > 20 µM; selectivity ratio [2]: 31; selectivity ratio [3]: < 4.9; EC50 [5]: > 2.4 µM; EC90 [5]: > 2.4 µM; EC90 [6, 30]: > 2.4 µM; EC50 [6, 31]: > 2.4 µM; selectivity ratio [18]: > 10.2; EC50 [19]: 4.7 µM; EC90 [19]: 17 µM; CC50 [20]: 28.5 µM; CC50 [8]: 11.8 µM; EC50 [9]: 0.36 µM; EC90 [9]: 1.97 µM; selectivity ratio at 1 h [21]: 7.1; EC50 [22]: 1.4 µM; EC90 [22]: 6.5 µM; selectivity ratio [10]: 15.2; CC50 at 1 h [23]: 33.3 µM; selectivity ratio [11]: > 4.9; CC50 at 1 h [24]: 13.6 µM; selectivity ratio [12]: > 5; EC50 [13]: 0.85 µM; EC90 [13]: 4 µM; EC50 [25]: 2.4 µM; EC90 [25]: > 4 µM; CC50 [14]: 11.8 µM; Selectivity Index [26]: 5.2; selectivity ratio at 1 h [27]: 5.7

Question: For CN(C)c1ccc(/C=N/N=c2\[nH]c(-c3ccc(F)cc3)cs2)cc1, which selectivity ratio [3] is on record?
Answer: > 8.3

Question: And the EC50 [4]?
Answer: > 300 µM

Question: What about the EC90 [4] of the same compound?
Answer: > 300 µM

Question: And the EC50 [5]?
Answer: 36 µM

Question: What about the EC90 [5] of the same compound?
Answer: > 300 µM

Question: And the EC90 [6, 30]?
Answer: 84.9 µM

Question: What about the EC50 [6, 31] of the same compound?
Answer: 73.6 µM

Question: What about the CC50 [7] of the same compound?
Answer: > 300 µM

Question: What about the CC50 [8] of the same compound?
Answer: > 300 µM

Question: And the Activity [9]?
Answer: inactive

Question: And the selectivity ratio [10]?
Answer: > 3.2

Question: And the selectivity ratio [28]?
Answer: > 18.1

Question: What about the selectivity ratio [11] of the same compound?
Answer: > 4.1

Question: What about the EC50 [13] of the same compound?
Answer: 6.32 µM

Question: What about the EC90 [13] of the same compound?
Answer: > 20 µM

Question: What about the CC50 [14] of the same compound?
Answer: > 300 µM

Question: And the CC50 [15]?
Answer: > 300 µM

Question: And the EC50 [16]?
Answer: 16.6 µM

Question: What about the EC90 [16] of the same compound?
Answer: 26.5 µM

Question: For Nc1ccn(C[C@@H](CO)OCP(=O)(O)O)c(=O)n1 [CIDOFOVIR], which selectivity ratio [3] is on record?
Answer: > 47.3

Question: What about the EC50 [5] of the same compound?
Answer: 6.7 µM

Question: And the EC90 [5]?
Answer: 18.4 µM

Question: What about the EC90 [6, 30] of the same compound?
Answer: 20 µM

Question: And the EC50 [6, 31]?
Answer: 9.8 µM

Question: And the CC50 [8]?
Answer: > 317 µM

Question: And the selectivity ratio [11]?
Answer: > 32.3

Question: And the CC50 [14]?
Answer: > 317 µM

Question: What does the source list for Cc1cn([C@H]2C[C@H](N=[N+]=[N-])[C@@H](CO)O2)c(=O)[nH]c1=O [ZIDOVUDINE]?
Answer: CC50 [20]: > 100 µM; EC50 [22]: 0.0044 µM; EC90 [22]: 0.031 µM; Selectivity Index [26]: >22727

Question: With Nc1nc(O)c2ncn(COC(CO)CO)c2n1 [GANCICLOVIR] as the compound, how does the CC50 [7] read?
Answer: > 100 µM

Question: And the selectivity ratio [29]?
Answer: > 2500

Question: Which CC50 [1] does the source give for NC(=S)N/N=C/c1ccc(OC(F)(F)F)cc1 here?
Answer: 1.44 µM

Question: What about the CC90 [1] of the same compound?
Answer: ≥ 5.08 µM

Question: And the selectivity ratio [2]?
Answer: 18

Question: What about the selectivity ratio [3] of the same compound?
Answer: > 5.5

Question: And the EC50 [4]?
Answer: > 60 µM

Question: And the EC90 [4]?
Answer: > 60 µM

Question: And the EC50 [5]?
Answer: 54.3 µM

Question: And the EC90 [5]?
Answer: > 300 µM

Question: And the EC90 [6, 30]?
Answer: > 300 µM

Question: And the EC50 [6, 31]?
Answer: 250 µM

Question: What about the selectivity ratio [18] of the same compound?
Answer: 8.3

Question: What about the CC50 [7] of the same compound?
Answer: 290 µM

Question: What about the CC50 [8] of the same compound?
Answer: > 300 µM

Question: What about the selectivity ratio [29] of the same compound?
Answer: < 4.8

Question: And the EC50 [9]?
Answer: 0.08 µM

Question: What about the EC90 [9] of the same compound?
Answer: 0.61 µM

Question: And the selectivity ratio [10]?
Answer: 111

Question: And the selectivity ratio [11]?
Answer: > 1.2

Question: What about the selectivity ratio [12] of the same compound?
Answer: > 40

Question: What about the EC50 [13] of the same compound?
Answer: 0.08 µM

Question: What about the EC90 [13] of the same compound?
Answer: 0.5 µM

Question: What about the CC50 [14] of the same compound?
Answer: > 300 µM

Question: With Nc1nc2c(ncn2COCCO)c(=O)[nH]1 [ACYCLOVIR] as the compound, how does the EC90 ([6]; Orthopoxvirus vaccinia) read?
Answer: inactive

Question: What about the EC50 ([6]; hff) of the same compound?
Answer: Not Active

Question: And the selectivity ratio [28]?
Answer: > 90.9

Question: What about the CC50 [15] of the same compound?
Answer: > 100 µM

Question: What about the EC50 [16] of the same compound?
Answer: 1.1 µM
